Measurements from ChEMBL document CHEMBL1156350, “New multiflorane-type triterpenoid acids from Sandoricum indicum” (J Nat Prod, 2001).
≈ marks a conversion by molar mass, not a printed value.

Assays:
Format in all cases: functional, cell-based
Lymphocyte = assay: Immunosuppressant activity in mouse lymphocytes assessed as inhibition of lymphocyte proliferation
P388/S = assay: Cytotoxicity against drug-sensitive mouse P388/S cells
P388 [1] = assay: Cytotoxicity against vincristine-resistant mouse P388 cells
P388 [2] = assay: Cytotoxicity against vincristine-resistant mouse P388 cells in presence of vincristine
P388 [3] = assay: Cytotoxicity against adriamycin-resistant mouse P388 cells
P388 [4] = assay: Cytotoxicity against adriamycin-resistant mouse P388 cells in presence of adriamycin
HL-60 = assay: Cytotoxicity against human HL60 cells

Structure (SMILES) | IC50 (Lymphocyte) [µg/mL] | IC50 (P388/S) [µg/mL] | IC50 (P388 [1]) [µg/mL] | IC50 (P388 [2]) [µg/mL] | IC50 (P388 [3]) [µg/mL] | IC50 (P388 [4]) [µg/mL] | IC50 (HL-60) [µg/mL]
CC1(C)[C@@H](O)CC[C@]2(C)[C@H]3CC=C4[C@@H]5C[C@](C)(C(=O)O)CC[C@]5(C)CC[C@@]4(C)[C@]3(C)CC[C@@H]12 | 50 (≈ 109 µM) | > 25 | > 25 | > 25 | > 25 | > 25 | –
CC1(C)C(=O)CC[C@]2(C)[C@H]3CC=C4[C@@H]5C[C@](C)(C(=O)O)CC[C@]5(C)CC[C@@]4(C)[C@]3(C)CC[C@@H]12 | 25 (≈ 55 µM) | > 25 | 12 (≈ 26.4 µM) | 12 | > 25 | > 25 | 15 (≈ 33 µM)
C=C(C)[C@@H]1CC[C@]2(C)[C@H](CC=C3[C@@H]4C[C@](C)(C(=O)O)CC[C@]4(C)CC[C@]32C)[C@@]1(C)CCC(=O)O | > 100 | > 25 | > 25 | > 25 | > 25 | > 25 | –
CC1(C)[C@H](O)CC[C@]2(C)[C@H]3CC=C4[C@@H]5C[C@](C)(C(=O)O)CC[C@]5(C)CC[C@@]4(C)[C@]3(C)CC[C@@H]12 [KATONIC ACID] | 25 (≈ 54.7 µM) | > 25 | 25 (≈ 54.7 µM) | 16 | > 25 | > 25 | –
C=C(C)[C@@H]1CC[C@]2(C)[C@H](CC=C3[C@@H]4C[C@@](C)(C(=O)O)CC[C@]4(C)CC[C@]32C)[C@@]1(C)CCC(=O)O [KOETJAPIC ACID] | > 100 | > 25 | > 25 | > 25 | > 25 | > 25 | –
CC1(C)C(=O)CC[C@]2(C)C3=C(CC[C@@H]12)[C@@]1(C)CC[C@@]2(C)CC[C@@](C)(C(=O)O)C[C@@]2(O)[C@]1(C)[C@H](O)C3 [SANDORINIC ACID A] | 25 (≈ 51.4 µM) | 16 (≈ 32.9 µM) | 10 (≈ 20.5 µM) | 9 | 9 (≈ 18.5 µM) | 9 | 15 (≈ 30.8 µM)
CC1(C)C(=O)CC[C@]2(C)[C@H]3C[C@@H](O)[C@@]4(C)[C@]5(O)C[C@](C)(C(=O)O)CC[C@]5(C)CC[C@]4(C)C3=CC[C@@H]12 [SANDORINIC ACID B] | 50 (≈ 103 µM) | > 25 | 16 (≈ 32.9 µM) | 16 | 18 (≈ 37 µM) | > 25 | –
CC1(C)C(=O)CC[C@]2(C)C3=C(CC[C@@H]12)[C@@]1(C)CC[C@@]2(C)CC[C@@](C)(C(=O)O)C[C@H]2[C@]1(C)[C@H](O)C3 [SANDORINIC ACID C] | – | > 25 | > 25 | > 25 | > 25 | > 25 | –
